{
  "source": "ChEMBL document CHEMBL5038615",
  "about": "“Discovery of a cinnamyl piperidine derivative as new neddylation inhibitor for gastric cancer treatment” (Eur J Med Chem, 2021)",
  "key": {"[1]": {"test_system": "MGC-803", "assay": "Induction of apoptosis in human MGC-803 cells assessed as reduction of mitochondrial membrane potential at 7.5 uM measured after 24 hrs by JC-1 staining based Flowcytometry assay (reference value: 3.8%)", "type": "functional", "set-up": "scale not given: the % may be the effect or the level left"}, "[2]": {"test_system": "HGC-27", "assay": "Induction of apoptosis in human HGC-27 cells assessed as reduction of mitochondrial membrane potential at 9 uM measured after 24 hrs by JC-1 staining based Flowcytometry assay (reference value: 2.4%)", "type": "functional", "set-up": "scale not given: the % may be the effect or the level left"}, "[3]": {"test_system": "MGC-803", "assay": "Induction of apoptosis in human MGC-803 cells assessed as late apoptotic cells at 5 uM measured after 48 hrs by AnnexinV/FITC staining based flow cytometry method (reference value: 0.9%)", "type": "functional"}, "[4]": {"test_system": "MGC-803", "assay": "Induction of apoptosis in human MGC-803 cells assessed as viable cells at 7.5 uM measured after 24 hrs by AnnexinV/FITC staining based flow cytometry method (reference value: 94.8%)", "type": "functional", "conditions": "read-out: Activity"}, "[5]": {"test_system": "MGC-803", "assay": "Induction of apoptosis in human MGC-803 cells assessed as down-regulation of Nrf2 expression in nucleus at 2.5 to 7.5 uM measured after 24 hrs by Western blot assay", "type": "functional, cell-based", "conditions": "dose 2.5-7.5 µM"}, "[6]": {"test_system": "MGC-803", "assay": "Inhibition of cell migration in human MGC-803 cells at 5 uM measured after 48 hrs by wound healing assay based inverted microscopic analysis", "type": "functional"}, "[7]": {"test_system": "MGC-803", "assay": "Induction of apoptosis in human MGC-803 cells assessed as necrotic cells at 2.5 uM measured after 24 hrs by AnnexinV/FITC staining based flow cytometry method (reference value: 1.9%)", "type": "functional"}, "[8]": {"target": "T1, NEDD8-activating enzyme E1 regulatory subunit (Homo sapiens) (UniProt Q13564)", "T1 sequence (whole entry)": "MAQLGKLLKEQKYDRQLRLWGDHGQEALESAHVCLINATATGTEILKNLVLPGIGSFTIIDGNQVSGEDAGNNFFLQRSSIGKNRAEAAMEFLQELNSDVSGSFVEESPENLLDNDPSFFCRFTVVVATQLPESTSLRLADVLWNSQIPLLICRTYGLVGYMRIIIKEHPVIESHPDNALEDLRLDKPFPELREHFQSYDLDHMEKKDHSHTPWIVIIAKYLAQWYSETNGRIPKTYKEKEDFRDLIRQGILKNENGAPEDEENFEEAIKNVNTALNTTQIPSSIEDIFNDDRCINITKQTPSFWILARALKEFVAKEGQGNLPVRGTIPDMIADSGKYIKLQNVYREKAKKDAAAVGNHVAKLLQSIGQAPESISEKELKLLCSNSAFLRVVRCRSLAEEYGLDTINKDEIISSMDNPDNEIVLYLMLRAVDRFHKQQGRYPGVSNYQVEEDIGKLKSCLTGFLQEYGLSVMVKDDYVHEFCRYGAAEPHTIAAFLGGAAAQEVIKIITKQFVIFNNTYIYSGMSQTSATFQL", "assay": "Inhibition of NAE-mediated neddylation in human MGC-803 cells assessed as cullin2-Nedd8 adduct formation at 2.5 to 7.5 uM measured after 24 hrs by western blot assay", "type": "cell-based", "conditions": "dose 2.5-7.5 µM"}, "[9]": {"test_system": "HGC-27", "assay": "Induction of apoptosis in human HGC-27 cells assessed as necrotic cells at 6 uM measured after 48 hrs by AnnexinV/FITC staining based flow cytometry method (reference value: 0.1%)", "type": "functional"}, "[10]": {"test_system": "MGC-803", "assay": "Antiproliferative activity against human MGC-803 cells assessed as inhibition of cell proliferation at 0.39 to 50 uM measured upto 72 hrs by MTT assay", "type": "functional, cell-based", "conditions": "dose 0.39-50 µM, time hrs <=72"}, "[11]": {"test_system": "HGC-27", "assay": "Induction of apoptosis in human HGC-27 cells assessed as late apoptotic cells at 3 uM measured after 48 hrs by AnnexinV/FITC staining based flow cytometry method (reference value: 1%)", "type": "functional"}, "[12]": {"test_system": "MGC-803", "assay": "Induction of apoptosis in human MGC-803 cells assessed as early apoptotic cells at 5 uM measured after 24 hrs by AnnexinV/FITC staining based flow cytometry method (reference value: 1.3%)", "type": "functional"}, "[13]": {"test_system": "MGC-803", "assay": "Induction of apoptosis in human MGC-803 cells assessed as necrotic cells at 7.5 uM measured after 24 hrs by AnnexinV/FITC staining based flow cytometry method (reference value: 1.9%)", "type": "functional"}, "[14]": {"test_system": "HGC-27", "assay": "Induction of apoptosis in human HGC-27 cells assessed as upregulation of Bax at 3 to 9 uM measured after 24 hrs by Western blot assay", "type": "functional, cell-based", "conditions": "dose 3-9 µM"}, "[15]": {"test_system": "MGC-803", "assay": "Induction of apoptosis in human MGC-803 cells assessed as down-regulation of Keap1 expression at 2.5 to 7.5 uM measured after 24 hrs by Western blot assay", "type": "functional, cell-based", "conditions": "dose 2.5-7.5 µM"}, "[16]": {"test_system": "MGC-803", "assay": "Antiproliferative activity against human MGC-803 cells assessed as cell survival at 7.5 uM pre-incubated with Z-VAD-FMK followed by compound addition and measured after 24 hrs by MTT assay", "type": "functional, cell-based"}, "[17]": {"assay": "Toxicity in NOD-SCID mouse xenografted with human MGC-803 cells assessed as change in body weight at 50 to 100 mg/kg/day, IG measured after 21 days", "type": "organism-based", "conditions": "in vivo, po, 504 h, dose 50-100 mg/kg/day, time 21 day"}, "[18]": {"test_system": "MGC-803", "assay": "Cell cycle arrest in human MGC-803 cells assessed as accumulation of cells at S phase at 7.5 uM measured after 24 hrs by Flowcytometry assay (reference value: 36.51%)", "type": "functional"}, "[19]": {"test_system": "MGC-803", "assay": "Antitumour activity against human MGC-803 cells xenografted in NOD-SCID mouse assessed as reduction on tumour growth at 50 mg/kg/day, IG measured after 21 days relative to control", "type": "functional", "conditions": "MGC-803, po, 504 h, time 21 day, read-out: TGI"}, "[20]": {"test_system": "MGC-803", "assay": "Induction of apoptosis in human MGC-803 cells assessed as early apoptotic cells at 7.5 uM measured after 24 hrs by AnnexinV/FITC staining based flow cytometry method (reference value: 1.3%)", "type": "functional"}, "[21]": {"test_system": "HGC-27", "assay": "Antiproliferative activity against human HGC-27 cells assessed as inhibition of cell proliferation at 0.39 to 50 uM measured upto 72 hrs by MTT assay", "type": "functional, cell-based", "conditions": "dose 0.39-50 µM, time hrs <=72"}, "[22]": {"test_system": "HGC-27", "assay": "Induction of apoptosis in human HGC-27 cells assessed as early apoptotic cells at 3 uM measured after 48 hrs by AnnexinV/FITC staining based flow cytometry method (reference value: 5.8%)", "type": "functional"}, "[23]": {"test_system": "MGC-803", "assay": "Induction of apoptosis in human MGC-803 cells assessed as late apoptotic cells at 5 uM measured after 24 hrs by AnnexinV/FITC staining based flow cytometry method (reference value: 2%)", "type": "functional"}, "[24]": {"target": "T1, NEDD8-activating enzyme E1 regulatory subunit (Homo sapiens)", "assay": "Inhibition of NAE-mediated neddylation in human MGC-803 cells assessed as cullin3-Nedd8 adduct formation at 2.5 to 7.5 uM measured after 24 hrs by western blot assay", "type": "cell-based", "conditions": "dose 2.5-7.5 µM"}, "[25]": {"test_system": "MGC-803", "assay": "Induction of apoptosis in human MGC-803 cells assessed as upregulation of Bax at 2.5 to 7.5 uM measured after 24 hrs by Western blot assay", "type": "functional, cell-based", "conditions": "dose 2.5-7.5 µM"}, "[26]": {"test_system": "MGC-803", "assay": "Induction of apoptosis in human MGC-803 cells assessed as necrotic cells at 5 uM measured after 24 hrs by AnnexinV/FITC staining based flow cytometry method (reference value: 1.9%)", "type": "functional"}, "[27]": {"test_system": "MGC-803", "assay": "Induction of apoptosis in human MGC-803 cells assessed as reduction of mitochondrial membrane potential at 5 uM measured after 24 hrs by JC-1 staining based Flowcytometry assay (reference value: 3.8%)", "type": "functional", "set-up": "scale not given: the % may be the effect or the level left"}, "[28]": {"test_system": "MGC-803", "assay": "Induction of apoptosis in human MGC-803 cells assessed as early apoptotic cells at 2.5 uM measured after 48 hrs by AnnexinV/FITC staining based flow cytometry method (reference value: 1.5%)", "type": "functional"}},
  "note": "Calls of active or inactive are those of the source. The calls are words filed in the database; no cut-off is given here.",
  "data": [
    {"smiles": "CCCCCc1ccc(NC(=O)C2CCN(C/C=C/c3ccccc3)CC2)cc1", "values": [
      {"measurement": "Activity", "setting": "[1]", "value": 70, "unit": "%"},
      {"measurement": "Activity", "setting": "[2]", "value": 58, "unit": "%"},
      {"measurement": "Activity", "setting": "[3]", "value": 51, "unit": "%"},
      {"measurement": "viability at 7.5 µM", "setting": "[4]", "value": 9.1, "unit": "%"},
      {"measurement": "Activity", "setting": "[5]", "value": "Active"},
      {"measurement": "inhibition at 5 µM", "setting": "[6]", "value": 40, "unit": "%"},
      {"measurement": "Activity", "setting": "[7]", "value": 0.8, "unit": "%"},
      {"measurement": "inhibition", "setting": "[8]", "value": "inactive"},
      {"measurement": "Activity", "setting": "[9]", "value": 0.7, "unit": "%"},
      {"measurement": "Activity", "setting": "[10]", "value": "Dose-Dependent Effect"},
      {"measurement": "Activity", "setting": "[11]", "value": 7, "unit": "%"},
      {"measurement": "Activity", "setting": "[12]", "value": 0.8, "unit": "%"},
      {"measurement": "Activity", "setting": "[13]", "value": 6.9, "unit": "%"},
      {"measurement": "Activity", "setting": "[14]", "value": "Dose-Dependent Effect"},
      {"measurement": "Activity", "setting": "[15]", "value": "Active"},
      {"measurement": "Activity", "setting": "[16]", "value": "Active"},
      {"measurement": "Activity", "setting": "[17]", "value": "Non-Toxic"},
      {"measurement": "Activity", "setting": "[18]", "value": 33.6, "unit": "%"},
      {"measurement": "inhibition in vivo at 50 mg/kg/day", "setting": "[19]", "value": 32.3, "unit": "%"},
      {"measurement": "Activity", "setting": "[20]", "value": 1.7, "unit": "%"},
      {"measurement": "Activity", "setting": "[21]", "value": "Dose-Dependent Effect"},
      {"measurement": "Activity", "setting": "[22]", "value": 6.2, "unit": "%"},
      {"measurement": "Activity", "setting": "[23]", "value": 10.9, "unit": "%"},
      {"measurement": "inhibition", "setting": "[24]", "value": "Active"},
      {"measurement": "Activity", "setting": "[25]", "value": "Dose-Dependent Effect"},
      {"measurement": "Activity", "setting": "[26]", "value": 8.2, "unit": "%"},
      {"measurement": "Activity", "setting": "[27]", "value": 17.4, "unit": "%"},
      {"measurement": "Activity", "setting": "[28]", "value": 3, "unit": "%"}
    ]}
  ]
}
